# Read-outs that look alike come from different tables or passages of the source.
# How the values were obtained:
# [1] = tested on: PBMCs from healthy donors; test: PBMC assay, dose-dependent cytokine induction; type: cell-based; conditions: Homo sapiens, 24 h
# Experimental: Compounds I-A to IV were additionally tested on PBMCs from healthy donors to determine the dose-dependent cytokine induction. PBMCs from buffy coats were thawed on the day of the experiment and seeded with a density of 5×10^5 cells per well (96-well format, RPMI with 5% Human Serum+1% MEM Non-Essential Amino Acids+1% Sodium Pyruvate). In line with the experiment above, a serial dilution of the compounds was prepared and added to the cells for 24 hours. On the next days, cells were centrifuged and supernatants harvested for a cytokine readout based on a multiplex assay kit from mesoscale discovery (customized multiplex panel for the cytokines: IFNα2a, IFNβ, TNFα and IL6). Impact on cell viability was determined by CellTiter Glo2.0 from promega (Cat. G9241). Both experimental read outs were performed according to the manufacturer's instructions.
# human STING = target: T1, human STING (Homo sapiens, UniProt Q86WV6); test: Affinity measurement assay (Biacore T200 SPR); conditions: biotinylated human STING, 25° C., 1:1 binding model, read-out: Affinity (Kd) rhSTING
# T1 construct: fused on or other part: His tag; chemically biotinylated (Sulfo-NHS-LC-Biotin) for capture on the chip
# Experimental: T7 Shuffle E. coli cells, transformed with an expression vector encoding either a truncated version of human or murine His-tagged STING, were cultivated overnight in 50 mL LB media. 200 mL of LB media were inoculated to an OD600 of 0.05 and cells were grown at 37° C. at 120 rpm until an OD600 of 0.5 was reached. Protein expression was induced using 1 mM IPTG and cells were further cultivated at 30° C. over night. Cells were harvested by centrifugation at 4000 rpm for 30 min at 4° C. and frozen at −80° C. Subsequently, cells were thawed and resuspended in 30 mL IMAC-Buffer A (10 mM HEPES, 50 mM NaCl, 10 mM Imidazole, 250 mM L-Arginine, 10% Glycerol, pH 7.1) supplemented with 15 U/mL benzonase, 0.2 mg/mL MgCl2 and 0.1 mg/mL lysozyme. Lysis was performed by five sonification cycles with an amplitude of 25% and a pulse for 2 s, with 5 min incubation on ice between cycles. The lysate was centrifuged for 15 min at 16.000 g and the supernatant was filtrated (0.22 μm). Purification of STING was done using an ÄKTA prime chromatography system. A 1 mL His Trap excel column was equilibrated with IMAC-Buffer A before lysate was applied. After washing with multiple column volumes of buffer, STING was eluted using a linear gradient of IMAC-Buffer B (10 mM HEPES, 50 mM NaCl, 500 mM Imidazole, 250 mM L-Arginine, 10% Glycerol, pH 7.1). Elution fractions were analyzed by SDS-PAGE and STING containing fractions were mixed. Using the Äkta pure system in combination with a HiLoad Superdex 16/600 75 pg column, STING was further purified by preparative size-exclusion chromatography. Fractions were analyzed by SDS-PAGE and STING containing fractions were combined.
# Purified proteins were biotinylated using EZ-Link Sulfo-NHS-LC-Biotin (Life Technologies GmbH) in ten-fold excess for 2 h on ice. The reaction was quenched by addition of 100 mM Tris pH8 and 1 h incubation on ice. Remaining biotin was removed by performing buffer exchange to PBS using Zeba Spin Desalting Columns, 7K MWCO, 0.5 mL (Thermo Fischer). Protein concentrations were determined using the Nanodrop system.
# Affinity measurement of STING-binding compounds were performed using the Biacore T200 SPR system (GE Healthcare, Biacore T200 control Software 3.2). Therefore, the Biotin CAPture kit, series S (Cytiva Europe, Cat.no. 28920234) was utilized. A freshly docked Biotin CAPture chip was rehydrated overnight in the instrument (standby mode). The following day, the chip surface was conditioned three times with regeneration solution (6 M guanidine-HCl, 0.25 M NaOH) for 60 s at 10 μL/min on flow cell (FC) 1 and FC2. Subsequently, the Biotin CAPture reagent (Cytiva Europe, Cat.no. 29423383) was applied for 300 s at 2 μL/min on FC1 and FC2, followed by capturing of 100 nM biotinylated murine or 150 nM biotinylated human STING, respectively. […]
# 4T1 cells = test: Anti-tumoral efficacy in murine 4T1 breast cancer model; type: in vivo, Balb/c Rj mice
# Experimental: The anti-tumoral efficacy of compound I-D was tested in a murine 4T1 breast cancer model. Balb/c Rj mice were injected subcutaneously with 1×10^5 4T1 cells. Three doses of compound I-D formulated in 5% Solutol in 2.5% glucose (31 nmol, 3.1 nmol and 0.31 nmol) or the vehicle control (5% Solutol in 2.5% glucose) were administered intratumorally at days 11, 16 and 21 after inoculation. Tumor size was monitored using BioVolume® (calculating the tumor size based on RGB, thermal and 3D model data) until day 21, when animals were sacrificed and tumor cytokines were analyzed compared to serum 3 h after final agonist injection. To evaluate the statistical significance of tumor volume reduction compared to the vehicle control, a 2way ANOVA test was used: *** p<0.0001.
# [2] = tested on: STING signaling (IRF and NFKB-pathway activation) in THP1 Dual Cells; test: THP-1 assay (THP1 Dual reporter cells, IRF / NFkB pathway activation); type: cell-based; conditions: Homo sapiens; THP1 Dual cells, 24 h incubation, IRF pathway; read-out: THP-1 EC50 (IRF)
# Experimental: THP1 Dual Cells™, were purchased from Invivogen (Cat. thpd-nfis), and used to determine the biological activity of the compounds on a molecular level and to determine downstream activation of STING signaling (IRF and NFKB-pathway activation). Briefly, cultured cells were seeded on the day of the experiment with a density of 1×10^5 cells per well (96-well format in RPMI supplemented with 25 mM HEPES, 10% heat inactivated FCS,). A serial dilution of the compounds was prepared and added to the cells for a total incubation time of 24 hours. The test items were tested in 8 concentrations to determine a dose-dependent activation of the NFKB and the IRF pathway. After 24 h cells were centrifuged and supernatants harvested for the detection of secreted alkaline phosphatase (measured by QUANTI-Blue™ detection solution; Cat. rep-qbs Invivogen) or lucia luciferase (measured by QUANTI-Luc™ reagent; Cat. rep-qlc1, Invivogen), respectively. The read outs were be performed according to the manufacturer's instructions. EC50 values were calculated using GraphPad Prism 9.
# [3] = IFNβ in supernatant, read-out: PBMC EC50 (μM) for IFNβ
# [4] = IFNα in supernatant, read-out: PBMC EC50 (μM) for IFNα
# [5] = tumor, 3 h after final agonist injection, day 21
# T1 sequence (Q86WV6 153-340 limits assumed): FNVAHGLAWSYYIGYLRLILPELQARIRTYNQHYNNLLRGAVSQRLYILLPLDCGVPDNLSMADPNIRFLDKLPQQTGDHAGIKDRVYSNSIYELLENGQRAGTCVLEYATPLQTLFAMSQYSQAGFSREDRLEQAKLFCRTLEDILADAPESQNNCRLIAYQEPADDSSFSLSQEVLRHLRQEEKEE
Kd (human STING) [nM],EC50 [2] [nM],SMILES,"EC50 [1, 3] [µM]","EC50 [1, 4] [µM]","Tumor size (BioVolume) compared to vehicle control (4T1 cells; 31, 3.1 and 0.31 nmol intratumorally at days 11, 16 and 21, until day 21)",IFNα level in the tumor compared to diABZI (4T1 cells; [5]),IFNγ level in the tumor compared to diABZI (4T1 cells; [5])
0.319,,CCn1nc(C)cc1C(=O)Nc1nc2cc(C(N)=O)cc(OC)c2n1C/C=C/Cn1c(NC(=O)c2cc(C)nn2CC)nc2cc(C(=O)NN)cc(OCCCN3CCOCC3)c21 [III],0.387,,,,
0.00413,,CCn1nc(C)cc1C(=O)Nc1nc2cc(C(N)=O)cc(OC)c2n1C/C=C/Cn1c(NC(=O)c2cc(C)nn2CC)nc2cc(C(N)=O)cc(OCCCC(=O)N(C)NC)c21 [I-D],0.265,0.26,marked decrease in tumor size,higher levels,higher levels
2.91,,CCn1nc(C)cc1C(=O)Nc1nc2cc(C(=O)N(C)NC)cc(OC)c2n1C/C=C/Cn1c(NC(=O)c2cc(C)nn2CC)nc2cc(C(N)=O)cc(OCCCN3CCOCC3)c21 [II-D],0.821,1.14,,,
0.959,2740,CCn1nc(C)cc1C(=O)Nc1nc2cc(C(=O)NNC)cc(OC)c2n1C/C=C/Cn1c(NC(=O)c2cc(C)nn2CC)nc2cc(C(N)=O)cc(OCCCN3CCOCC3)c21 [II-B],1.16,1.95,,,

# Source: patent US20260242366A1, “STING AGONISTS CONTAINING HYDRAZIDE, HYDRAZINE, AND HYDROXAMIC ACID FUNCTIONAL GROUPS” (BioNTech SE, priority 2023, published 2026)
